Assays:
Assay in all cases: relative viability (nuclei count vs DMSO), 5 days (fraction); higher = more cells survive
[1] = tested on: NCI-H1395
Summary of the method: (§1)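 One day after seeding in 1536-well plates, lung cancer cell lines were dosed by pin tool. Dosing was either single-drug or a fixed anchor-drug dose plus five library-drug doses (not always all listed) in √10 steps. After 5 days, nuclei were stained in one fix-and-stain step and counted on 4× images, and relative viability is the nuclei count of treated wells over that of vehicle wells, given as the median of duplicate plates.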

[2] = tested on: HOP-62
Summary of the method: as §1

[3] = tested on: A-427
Summary of the method: as §1

[4] = tested on: NCI-H522
Summary of the method: as §1

[5] = tested on: NCI-H1792
Summary of the method: as §1

[6] = tested on: NCI-H1437
Summary of the method: as §1

[7] = tested on: HCC-827
Summary of the method: as §1

[8] = tested on: CAL-12T
Summary of the method: as §1

[9] = tested on: NCI-H1755
Summary of the method: as §1

[10] = tested on: SK-LU-1
Summary of the method: as §1

[11] = tested on: COR-L 105
Summary of the method: as §1

[12] = tested on: EMC-BAC-2
Summary of the method: as §1

[13] = tested on: NCI-H23
Summary of the method: as §1

[14] = tested on: LCLC-103H
Summary of the method: as §1

[15] = tested on: NCI-H2228
Summary of the method: as §1

[16] = tested on: HCC-366
Summary of the method: as §1

[17] = tested on: NCI-H1915
Summary of the method: as §1

[18] = tested on: SW 1573
Summary of the method: as §1

[19] = tested on: NCI-H460
Summary of the method: as §1

[20] = tested on: NCI-H727
Summary of the method: as §1

[21] = tested on: HARA
Summary of the method: as §1

[22] = tested on: NCI-H2009
Summary of the method: as §1

For `O=c1cc(N2CCOCC2)oc2c(-c3cccc4c3sc3ccccc34)cccc12` + CC(=O)c1c(C)c2cnc(Nc3ccc(N4CCNCC4)cn3)nc2n(C2CCCC2)c1=O [Palbociclib] (partner 0.5 µM), the relative viability ([1]; first compound 0.03162 µM) was 0.547, the relative viability ([1]; first compound 0.1 µM) was 0.634 and the relative viability ([1]; first compound 0.3162 µM) was 0.631. It also gave a relative viability ([1]; first compound 1 µM) of 0.637, a relative viability ([2]; first compound 0.01 µM) of 0.452 and a relative viability ([2]; first compound 0.03162 µM) of 0.451. It also gave a relative viability ([2]; first compound 0.1 µM) of 0.451, a relative viability ([2]; first compound 0.3162 µM) of 0.459 and a relative viability ([2]; first compound 1 µM) of 0.415. It also gave a relative viability ([3]; first compound 0.01 µM) of 0.533, a relative viability ([3]; first compound 0.03162 µM) of 0.52 and a relative viability ([3]; first compound 0.1 µM) of 0.528. The relative viability ([3]; first compound 0.3162 µM) was 0.508, the relative viability ([3]; first compound 1 µM) was 0.513 and the relative viability ([4]; first compound 0.01 µM) was 0.887. For the same compound, the relative viability ([4]; first compound 0.03162 µM) was 1.25, the relative viability ([4]; first compound 0.1 µM) was 0.831 and the relative viability ([4]; first compound 0.3162 µM) was 0.948. It also gave a relative viability ([4]; first compound 1 µM) of 0.977, a relative viability ([5]; first compound 0.01 µM) of 0.641 and a relative viability ([5]; first compound 0.03162 µM) of 0.577. It also gave a relative viability ([5]; first compound 0.1 µM) of 0.658, a relative viability ([5]; first compound 0.3162 µM) of 0.668 and a relative viability ([5]; first compound 1 µM) of 0.683. The relative viability ([6]; first compound 0.01 µM) was 0.3, the relative viability ([6]; first compound 0.03162 µM) was 0.312 and the relative viability ([6]; first compound 0.1 µM) was 0.282. For the same compound, the relative viability ([6]; first compound 0.3162 µM) was 0.31, the relative viability ([6]; first compound 1 µM) was 0.281 and the relative viability ([7]; first compound 0.01 µM) was 0.52. The relative viability ([7]; first compound 0.03162 µM) was 0.485, the relative viability ([7]; first compound 0.1 µM) was 0.457 and the relative viability ([7]; first compound 0.3162 µM) was 0.53. It also gave a relative viability ([7]; first compound 1 µM) of 0.47, a relative viability ([8]; first compound 0.01 µM) of 0.444 and a relative viability ([8]; first compound 0.03162 µM) of 0.401. The relative viability ([8]; first compound 0.1 µM) was 0.587, the relative viability ([8]; first compound 0.3162 µM) was 0.528 and the relative viability ([8]; first compound 1 µM) was 0.436. For the same compound, the relative viability ([9]; first compound 0.01 µM) was 0.475, the relative viability ([9]; first compound 0.03162 µM) was 0.455 and the relative viability ([9]; first compound 0.1 µM) was 0.488. The relative viability ([9]; first compound 0.3162 µM) was 0.457, the relative viability ([9]; first compound 1 µM) was 0.456 and the relative viability ([10]; first compound 0.01 µM) was 0.473. The relative viability ([10]; first compound 0.03162 µM) was 0.425, the relative viability ([10]; first compound 0.1 µM) was 0.368 and the relative viability ([10]; first compound 0.3162 µM) was 0.391. For the same compound, the relative viability ([10]; first compound 1 µM) was 0.347, the relative viability ([11]; first compound 0.01 µM) was 0.41 and the relative viability ([11]; first compound 0.03162 µM) was 0.468. It also gave a relative viability ([11]; first compound 0.1 µM) of 0.438, a relative viability ([11]; first compound 0.3162 µM) of 0.409 and a relative viability ([11]; first compound 1 µM) of 0.386. It also gave a relative viability ([12]; first compound 0.01 µM) of 0.525, a relative viability ([12]; first compound 0.03162 µM) of 0.541 and a relative viability ([12]; first compound 0.1 µM) of 0.55. For the same compound, the relative viability ([12]; first compound 0.3162 µM) was 0.51, the relative viability ([12]; first compound 1 µM) was 0.497 and the relative viability ([13]; first compound 0.01 µM) was 0.464. It also gave a relative viability ([13]; first compound 0.03162 µM) of 0.524, a relative viability ([13]; first compound 0.3162 µM) of 0.485 and a relative viability ([13]; first compound 1 µM) of 0.473. For the same compound, the relative viability ([14]; first compound 0.01 µM) was 0.446, the relative viability ([14]; first compound 0.03162 µM) was 0.439 and the relative viability ([14]; first compound 0.1 µM) was 0.513. For the same compound, the relative viability ([14]; first compound 0.3162 µM) was 0.514, the relative viability ([14]; first compound 1 µM) was 0.43 and the relative viability ([15]; first compound 0.01 µM) was 0.943. The relative viability ([15]; first compound 0.03162 µM) was 0.749, the relative viability ([15]; first compound 0.1 µM) was 0.802 and the relative viability ([15]; first compound 0.3162 µM) was 0.683. For the same compound, the relative viability ([15]; first compound 1 µM) was 0.83, the relative viability ([16]; first compound 0.01 µM) was 0.371 and the relative viability ([16]; first compound 0.03162 µM) was 0.417. For the same compound, the relative viability ([16]; first compound 0.1 µM) was 0.409, the relative viability ([16]; first compound 0.3162 µM) was 0.367 and the relative viability ([16]; first compound 1 µM) was 0.382. It also gave a relative viability ([17]; first compound 0.01 µM) of 0.529, a relative viability ([17]; first compound 0.03162 µM) of 0.555 and a relative viability ([17]; first compound 0.1 µM) of 0.61. For the same compound, the relative viability ([17]; first compound 0.3162 µM) was 0.461, the relative viability ([17]; first compound 1 µM) was 0.526 and the relative viability ([18]; first compound 0.01 µM) was 0.349. For the same compound, the relative viability ([18]; first compound 0.03162 µM) was 0.436, the relative viability ([18]; first compound 0.1 µM) was 0.408 and the relative viability ([18]; first compound 0.3162 µM) was 0.349. The relative viability ([18]; first compound 1 µM) was 0.394, the relative viability ([19]; first compound 0.01 µM) was 0.178 and the relative viability ([19]; first compound 0.03162 µM) was 0.18. For the same compound, the relative viability ([19]; first compound 0.1 µM) was 0.198, the relative viability ([19]; first compound 0.3162 µM) was 0.215 and the relative viability ([19]; first compound 1 µM) was 0.135. It also gave a relative viability ([20]; first compound 0.01 µM) of 0.66, a relative viability ([20]; first compound 0.03162 µM) of 0.6 and a relative viability ([20]; first compound 0.1 µM) of 0.624. It also gave a relative viability ([20]; first compound 0.3162 µM) of 0.699, a relative viability ([20]; first compound 1 µM) of 0.737 and a relative viability ([21]; first compound 0.01 µM) of 0.253. It also gave a relative viability ([21]; first compound 0.03162 µM) of 0.252, a relative viability ([21]; first compound 0.1 µM) of 0.201 and a relative viability ([21]; first compound 0.3162 µM) of 0.278. It also gave a relative viability ([21]; first compound 1 µM) of 0.307, a relative viability ([22]; first compound 0.01 µM) of 0.234 and a relative viability ([22]; first compound 0.03162 µM) of 0.25. The relative viability ([22]; first compound 0.1 µM) was 0.22, the relative viability ([22]; first compound 0.3162 µM) was 0.177 and the relative viability ([22]; first compound 1 µM) was 0.158.

Source: the supplement of paper PMC10307832
